Several values for one entry are separate records, joined by “and”; a condition that tells them apart may be missing. Identical values can stand only once. Like-named read-outs stand apart in the source and are kept apart here.
Columns and labels:
[1] = test system: Geobacillus stearothermophilus spores
C. difficile (spores) = conditions: DHP gas 0.5-1.0 ppm, 3.78 × 10^6 per inch^2
H1N1 virus = conditions: DHP gas 0.6 ppm, 1.12 × 10^6 per inch^2
Feline calicivirus = conditions: DHP gas 0.6 ppm; ~1 × 10^8 per inch^2
[2] = test system: mold spoilage on fresh strawberries; conditions: DHP gas 0.1-0.4 ppm; 5 days; 73-78° F.; humidity 40-65%
Description: Experiments are conducted in a 1584 cubic foot test room. The temperature of test room is maintained between 73° F. and 78° F., and the humidity of the ambient air is between 40% and 65%. […] After the 5-day incubation period, the strawberries are evaluated for the presence of mold spoilage.

MS2 bacteriophage = conditions: DHP gas 0.6 ppm; 1.25 × 10^3 per inch^2
[3] = test system: Aspergillus Niger (vegetative); conditions: vegetative form; DHP gas 0.3 ppm; 2.2 × 10^4 per inch^2
Streptococcus pyogenes = conditions: DHP gas 0.6 ppm; 5 × 10^4 per inch^2
Enterococcus faecalis = conditions: DHP gas 0.5-1.0 ppm
[4] = Log2 spore strip, 72 hours exposure to DHP gas at about 0.3 ppm
[5] = Log 2 spore strip, 144 hours exposure to DHP gas at about 0.3 ppm
[6] = Log 2 spore strip, 216 hours exposure to DHP gas at about 0.3 ppm
[7] = Log2 spore strip, 288 hours exposure to DHP gas at about 0.3 ppm
[8] = Log3 spore strip, 40 hours exposure to DHP gas at about 0.3 ppm
[9] = Log3 spore strip, 47.75 hours exposure to DHP gas at about 0.3 ppm
[10] = Log3 spore strip, 60.2 hours exposure to DHP gas at about 0.3 ppm
[11] = Log3 spore strip, 67.5 hours exposure to DHP gas at about 0.3 ppm
[12] = Log3 spore strip, 100 hours exposure to DHP gas at about 0.3 ppm
[13] = Log 3 spore strip, 144 hours exposure to DHP gas at about 0.3 ppm
[14] = Log 3 spore strip, 216 hours exposure to DHP gas at about 0.3 ppm
[15] = Log4 spore strip, 121.4 hours exposure to DHP gas at about 0.3 ppm
[16] = Log4 spore strip, 192 hours exposure to DHP gas at about 0.3 ppm
[17] = Log 4 spore strip, 216 hours exposure to DHP gas at about 0.3 ppm
[18] = Log4 spore strip, 223.5 hours exposure to DHP gas at about 0.3 ppm
[19] = Log4 spore strip, 288 hours exposure to DHP gas at about 0.3 ppm

OO [DHP gas, hydrogen peroxide] was tested, and the “Biological Change” value [1, 4] was “turbidity”, the “Color Change within 24 hour incubation” value [1, 4] was “light yellow” and the “Time of Change” value [1, 4] was 15 h. The “Color Change within 24 hour incubation” value [1, 5] was “very dark orange”, the “Time of Change” value [1, 5] was 22 h and the “Color Change within 24 hour incubation” value ([1]; Log 2 spore strip, 166.5 hours exposure to DHP gas at about 0.3 ppm) was “may have changed”. For the same compound, the “Biological Change” value [1, 6] was “no turbidity”, the “Color Change within 24 hour incubation” value [1, 6] was “very dark orange” and the “Time of Change” value [1, 6] was 22 h. For the same compound, the “Biological Change” value [1, 7] was “no turbidity”, the “Color Change within 24 hour incubation” value [1, 7] was “very light orange” and the “Time of Change” value [1, 7] was 17 h. For the same compound, the “Biological Change” value [1, 8] was “Heavy turbidity”, the “Color Change within 24 hour incubation” value [1, 8] was “+ Light orange” and the “Color Change within 24 hour incubation” value ([1]; Log3 spore strip, 42 hours exposure to DHP gas at about 0.3 ppm) was “+”. The “Color Change within 24 hour incubation” value ([1]; Log3 spore strip, 45.5 hours exposure to DHP gas at about 0.3 ppm) was “+”, the “Biological Change” value [1, 9] was “Less turbidity” and the “Color Change within 24 hour incubation” value [1, 9] was “+ Dark orange”. For the same compound, the “Biological Change” value [1, 10] was “Heavy turbidity”, the “Color Change within 24 hour incubation” value [1, 10] was “+” and the “Color Change within 24 hour incubation” value ([1]; Log3 spore strip, 64.2 hours exposure to DHP gas at about 0.3 ppm) was “+”. The “Color Change within 24 hour incubation” value ([1]; Log3 spore strip, 64.5 hours exposure to DHP gas at about 0.3 ppm) was “+”, the “Biological Change” value [1, 11] was “Almost no turbidity” and the “Color Change within 24 hour incubation” value [1, 11] was “+”. For the same compound, the “Color Change within 24 hour incubation” value ([1]; Log3 spore strip, 70 hours exposure to DHP gas at about 0.3 ppm) was “+”, the “Color Change within 24 hour incubation” value ([1]; Log3 spore strip, 85.1 hours exposure to DHP gas at about 0.3 ppm) was “+” and the “Color Change within 24 hour incubation” value ([1]; Log3 spore strip, 89 hours exposure to DHP gas at about 0.3 ppm) was “+”. The “Color Change within 24 hour incubation” value [1, 12] was “+”, the “Time of Change” value [1, 12] was 16 h and 22 to 24 h and the “Biological Change” value [1, 13] was “no turbidity”. The “Color Change within 24 hour incubation” value [1, 13] was “very light orange”, the “Time of Change” value [1, 13] was 16.5 h and the “Color Change within 24 hour incubation” value ([1]; Log 3 spore strip, 166.5 hours exposure to DHP gas at about 0.3 ppm) was “−”. The “Biological Change” value [1, 14] was “no turbidity”, the “Color Change within 24 hour incubation” value [1, 14] was “very dark orange” and the “Time of Change” value [1, 14] was 22 h. For the same compound, the “Biological Change” value [1, 15] was “almost no turbidity”, the “Color Change within 24 hour incubation” value [1, 15] was “−” and the “Time of Change” value [1, 15] was 8 to 15 h and 15 h. The “Time of Change” value ([1]; Log4 spore strip, 144 hours exposure to DHP gas at about 0.3 ppm) was 17 h and 16.5 h, the “Color Change within 24 hour incubation” value ([1]; Log 4 spore strip, 166.5 hours exposure to DHP gas at about 0.3 ppm) was “−” and the “Color Change within 24 hour incubation” value ([1]; Log4 spore strip, 168 hours exposure to DHP gas at about 0.3 ppm) was “−”. The “Color Change within 24 hour incubation” value [1, 16] was “−”, the “Time of Change” value [1, 16] was 15 h and the “Biological Change” value [1, 17] was “no turbidity”. The “Color Change within 24 hour incubation” value [1, 17] was “very dark orange”, the “Time of Change” value [1, 17] was 22 h and the “Biological Change” value [1, 18] was “no turbidity”. For the same compound, the “Time of Change” value [1, 18] was 14 h and 22 h, the “Biological Change” value [1, 19] was “no turbidity” and the “Color Change within 24 hour incubation” value [1, 19] was “darker orange”. The “Time of Change” value [1, 19] was 17 h, the “Reduction at 24 hours” value (C. difficile (spores)) was 70.4% at 24 and the “Time to 90% reduction” value (H1N1 virus) was “less than 30 minutes”. The “Time to 90% reduction” value (H1N1 virus; listed as DHP Gas) was 22.9 min, the “Time to 90% reduction” value (Feline calicivirus) was <2 h and the “Time to 90% reduction” value (MRSA; soil load not stated) was “under 5 hours”. The “Time to 90% reduction” value (MRSA; with soil load, DHP gas 0.6 ppm, 0.5 × 10^5 per inch^2) was 4.6 h, the “Time to 90% reduction” value (MRSA; without soil load, DHP gas 0.6 ppm, 1 × 10^5 per inch^2) was 2.6 h and the “Mold spoilage after 5-day incubation” value [2] was “no signs of mold spoilage”. For the same compound, the “Time to 90% reduction” value (MS2 bacteriophage) was <4 h, the “Time to 90% reduction” value [3] was 7 h and the “Time to 90% reduction” value (Streptococcus pyogenes) was <4 h. For the same compound, the “Time to 90% reduction” value (Enterococcus faecalis) was <2 h.
